Data: patent US8802664B2 (Bioproject, priority 2010, dated 2014)
Counter-ions that a name gives are not always drawn.

First: CCN1CCC(OC(c2cccc(OCCN)c2)c2nc3ccccc3s2)CC1 (centres unmarked) (as salt: oxalate) [Example 290, 2-{3-[benzothiazol-2-yl(1-ethyl-piperidin-4-yloxy)methyl]phenoxy}ethylamine]
Second: CN1CCC(OC(c2cccc(OCCCN)c2)c2nc3ccccc3s2)CC1 (centres unmarked) (as salt: oxalate) [Example 311, 3-{3-[benzothiazol-2-yl(1-methylpiperidin-4-yloxy)methyl]phenoxy}propylamine]
The melting point of the first is lower: 112 °C for the first, 120 °C for the second.

Going from CCOCCn1c(C(OC2CCN(C)CC2)c2cccc(I)c2)nc2ccccc21 (centres unmarked) (as salt: oxalate) [Example 497, 1-(2-ethoxyethyl)-2-[(3-iodophenyl)(1-methylpiperidin-4-yloxy)methyl]-1H-benzimidazole] to CN1CCC(OC(c2cccc(I)c2)c2nc3ccccc3n2C)CC1 (centres unmarked) (as salt: oxalate) [Example 472, 2-[(3-iodophenyl)(1-methylpiperidin-4-yloxy)methyl]-1-methyl-1H-benzimidazole], the melting point falls from 88 °C to 76 °C.

Compared with COCCn1c(C(OC2CCN(C)CC2)c2cccc(C#CCCCCN)c2)nc2ccccc21 (centres unmarked) (as salt: oxalate) [Example 501], CN1CCC(OC(c2cccc(OCCCCN)c2)c2nc3ccccc3[nH]2)CC1 (centres unmarked) (as salt: oxalate) [Example 331, 4-{3-[(1H-benzimidazol-2-yl)(1-methylpiperidin-4-yloxy)methyl]phenoxy}butylamine] is higher in melting point: 109 °C for the first, 115 °C for the second.

First: CN1CCC(OC(c2cc(C(F)(F)F)cc(C(F)(F)F)c2)c2nc3ccccc3[nH]2)CC1 (centres unmarked) (as salt: oxalate) [Example 547]
Second: CN1CCC(OC(c2cccc(Cl)c2)c2nc3ccccc3[nH]2)CC1 (centres unmarked) (as salt: oxalate) [Example 225, 2-[(3-chlorophenyl)(1-methylpiperidin-4-yloxy)methyl]-1H-benzimidazole]
The melting point of the first is lower: 130 °C for the first, 158 °C for the second.

Going from CN1CCC(OC(c2nc3ccccc3[nH]2)c2cc(OCCF)ccc2F)CC1 (centres unmarked) (as salt: oxalate) [Example 489] to CN1CCC(OC(c2nc3ccccc3[nH]2)c2cc(O)ccc2F)CC1 (centres unmarked) (as salt: oxalate) [Example 487], the melting point rises from 109 °C to 135 °C.

Going from COc1cccc(COc2cccc(C(OC3CCN(C)CC3)c3nc4ccccc4s3)c2)c1 (centres unmarked) (as salt: oxalate) [Example 185, 2-[[3-(3-methoxybenzyloxy)phenyl](1-methylpiperidin-4-yloxy)methyl]benzothiazole] to CN1CCC(OC(c2cccc(OCc3ccccc3)c2)c2nc3ccccc3s2)CC1 (centres unmarked) (as salt: oxalate) [Example 45, 2-[(3-benzyloxyphenyl)(1-methylpiperidin-4-yloxy)methyl]benzothiazole], the melting point falls from 77 °C to 52 °C.

Compared with Cc1cc(F)c(C(OC2CCN(C)CC2)c2nc3ccccc3o2)c(F)c1 (centres unmarked) (as salt: oxalate) [Example 536], Cc1cc(C(OC2CCN(C)CC2)c2nc3ccccc3s2)ccc1F (centres unmarked) (as salt: oxalate) [Example 34, 2-[(4-fluoro-3-methylphenyl)(1-methylpiperidin-4-yloxy)methyl]benzothiazole] is higher in melting point: 114 °C for the first, 120 °C for the second.

First: CN1CCC(OC(c2cccc(OCCF)c2)c2nc3ccccc3s2)CC1 (centres unmarked) (as salt: oxalate) [Example 163, 2-[[3-(2-fluoroethoxy)phenyl](1-methylpiperidin-4-yloxy)methyl]benzothiazole]
Second: CN1CCC(OC(c2cccc(OCCCl)c2)c2nc3ccccc3s2)CC1 (centres unmarked) (as salt: oxalate) [Example 354, 2-[[3-(2-Chloroethoxy)phenyl](1-methylpiperidin-4-yloxy)methyl]benzothiazole]
The melting point of the first is higher: 147 °C for the first, 70 °C for the second.

Compared with COc1cccc(C(NC2CCN(C)CC2)c2nc3ccccc3s2)c1 (centres unmarked) (as salt: oxalate) [Example 25, [benzothiazol-2-yl(3-methoxyphenyl)methyl](1-methylpiperidin-4-yl)amine], CCCCOc1cccc(C(NC2CCN(C)CC2)c2nc3ccccc3s2)c1 (centres unmarked) (as salt: oxalate) [Example 91, [benzothiazol-2-yl(3-butoxyphenyl)methyl](1-methylpiperidin-4-yl)amine] is higher in melting point: 160 °C for the first, 176 °C for the second.

Compared with CN1CCC(OC(c2cccc(OCCN3CCCCC3)c2)c2nc3ccccc3[nH]2)CC1 (centres unmarked) (as salt: oxalate) [Example 356, 2-{(1-methylpiperidin-4-yloxy)[3-(2-piperidin-1-yl-ethoxy)phenyl]methyl}-1H-benzimidazole], CN1CCC(OC(c2cccc(OCCCCN3CCCCC3)c2)c2nc3ccccc3[nH]2)CC1 (centres unmarked) (as salt: oxalate) [Example 333, 2-{(1-methylpiperidin-4-yloxy)[3-(4-piperidin-1-yl-butoxy)phenyl]methyl}-1H-benzimidazole] is lower in melting point: 160 °C for the first, 130 °C for the second.

Going from CN1CCC(OC(c2cccc(OCC3CCCNC3)c2)c2nc3ccccc3s2)CC1 (centres unmarked) (as salt: oxalate) [Example 378, 2-{(1-methylpiperidin-4-yloxy)[3-(piperidin-3-ylmethoxy)phenyl]methyl}benzothiazole] to CN1CCC(OC(c2cccc(OC3CCNC3)c2)c2nc3ccccc3s2)CC1 (centres unmarked) (as salt: oxalate) [Example 382, 2-{(1-methylpiperidin-4-yloxy)[3-(pyrrolidin-3-yloxy)phenyl]methyl}benzothiazole], the melting point falls from 55 °C to 50 °C.

Going from CN1CCC(OC(c2ccc(Cl)cc2)c2nc3ccccc3[nH]2)CC1 (centres unmarked) (as salt: oxalate) [Example 226, 2-[(4-chlorophenyl)(1-methylpiperidin-4-yloxy)methyl]-1H-benzimidazole] to CCSc1cc(C(OC2CCN(C)CC2)c2nc3ccccc3[nH]2)ccc1C (centres unmarked) (as salt: oxalate) [Example 274, 2-[(3-ethylsulfanyl-4-methylphenyl)(1-methylpiperidin-4-yloxy)methyl]-1H-benzimidazole], the melting point falls from 175 °C to 142 °C.

First: CCCCCOc1cccc(C(NC2CCN(C)CC2)c2nc3ccccc3[nH]2)c1 (centres unmarked) (as salt: oxalate) [Example 95, [(1H-benzimidazol-2-yl)(3-pentyloxyphenyl)methyl](1-methylpiperidin-4-yl)amine]
Second: CN1CCC(NC(c2cccc(OCCF)c2)c2nc3ccccc3[nH]2)CC1 (centres unmarked) (as salt: oxalate) [Example 180, {(1H-benzimidazol-2-yl)[3-(2-fluoro-ethoxy)phenyl]methyl}(1-methylpiperidin-4-yl)amine]
The melting point of the first is lower: 128 °C for the first, 155 °C for the second.

Going from CN1CCC(OC(c2cccc(OCCN3CCN(C(=O)OC(C)(C)C)CC3)c2)c2nc3ccccc3[nH]2)CC1 (centres unmarked) (as salt: oxalate) [Example 369, 4-(2-{3-[(1H-benzimidazol-2-yl)(1-methylpiperidin-4-yloxy)methyl]phenoxy}ethyl)piperazine-1-carboxylic acid tert-butyl ester] to CN1CCC(OC(c2cccc(SCCCCCN)c2)c2nc3ccccc3[nH]2)CC1 (centres unmarked) (as salt: oxalate) [Example 381, 5-{3-[(1H-benzimidazol-2-yl)(1-methylpiperidin-4-yloxy)methyl]phenylsulfanyl}pentylamine], the melting point rises from 92 °C to 140 °C.

Compared with CN1CCC(OC(c2cccc(SCCCCCCO)c2)c2nc3ccccc3s2)CC1 (centres unmarked) (as salt: oxalate) [Example 292, 6-{3-[benzothiazol-2-yl(1-methylpiperidin-4-yloxy)methyl]phenylsulfanyl}hexan-1-ol], CN1CCC(OC(c2cccc(SCCNC(=N)N)c2)c2nc3ccccc3s2)CC1 (centres unmarked) (as salt: hydrochloride) [Example 302, N-(2-{3-[benzothiazol-2-yl(1-methylpiperidin-4-yloxy)methyl]phenylsulfanyl}ethyl)guanidine] is higher in melting point: 80 °C for the first, 125 °C for the second.

Going from Cc1ccccc1COc1cccc(C(NC2CCN(C)CC2)c2nc3ccccc3[nH]2)c1 (centres unmarked) (as salt: oxalate) [Example 129, {(1H-benzimidazol-2-yl)[3-(2-methylbenzyloxy)phenyl]methyl}(1-methylpiperidin-4-yl)amine] to CN1CCC(OC(c2cccc(-c3ccccc3Cl)c2)c2nc3ccccc3[nH]2)CC1 (centres unmarked) (as salt: oxalate) [Example 121, 2-[(2′-Chlorobiphenyl-3-yl)(1-methylpiperidin-4-yloxy)methyl]-1H-benzimidazole], the melting point rises from 121 °C to 130 °C.

First: CC(C)Oc1cccc(C(OC2CCN(C)CC2)c2nc3ccccc3s2)c1 (centres unmarked) (as salt: oxalate) [Example 55, 2-[(3-isopropoxyphenyl)(1-methylpiperidin-4-yloxy)methyl]benzothiazole]
Second: CNCCOc1cccc(C(OC2CCN(C)CC2)c2nc3ccccc3s2)c1 (centres unmarked) (as salt: oxalate) [Example 279, (2-{3-[benzothiazol-2-yl(1-methylpiperidin-4-yloxy)methyl]phenoxy}ethyl)methyl-amine]
The melting point of the first is lower: 68 °C for the first, 125 °C for the second.

First: CN1CCC(OC(c2cccc(OCc3ccncc3)c2)c2nc3ccccc3s2)CC1 (centres unmarked) (as salt: oxalate) [Example 265, 2-{(1-methylpiperidin-4-yloxy)[3-(pyridin-4-ylmethoxy)phenyl]methyl}benzothiazole]
Second: CN1CCC(OC(c2cccc(OC3CCC(N)CC3)c2)c2nc3ccccc3s2)CC1 (centres unmarked) (as salt: oxalate) [Example 477]
The melting point of the first is higher: 101 °C for the first, 95 °C for the second.

Going from CN1CCC(OC(c2cccc(N3CC(O)C3)c2)c2nc3ccccc3s2)CC1 (centres unmarked) (as salt: oxalate) [Example 403, 1-{3-[benzothiazol-2-yl(1-methylpiperidin-4-yloxy)methyl]phenyl}azetidin-3-ol] to CN1CCC(OC(c2cccc(N3CCC(F)C3)c2)c2nc3ccccc3s2)CC1 (centres unmarked) (as salt: oxalate) [Example 454], the melting point falls from 117 °C to 103 °C.

First: CN1CCC(OC(c2cccc(N3CC4CC(N)CC4C3)c2)c2nc3ccccc3s2)CC1 (centres unmarked) (as salt: oxalate) [Example 471]
Second: CN1CCC(OC(c2cccc(CCCCCCNC(=N)N)c2)c2nc3ccccc3s2)CC1 (centres unmarked) (as salt: hydrochloride) [Example 363, N-(6-{3-[benzothiazol-2-yl(1-methylpiperidin-4-yloxy)methyl]phenyl}hexyl)guanidine]
The melting point of the first is higher: 126 °C for the first, 90 °C for the second.

Work on CN1CCC(COC(c2cccc(C#CCCCN)c2)c2nc3cc(F)ccc3[nH]2)C1 (centres unmarked) (as salt: oxalate) [Example 462] yielded a melting point of 200 °C.
